Test results: paper PMC13013135, “[^99mTc]Tc-PSMA-HSG for PSMA-targeted Hybrid Surgical Guidance: a new addition to the PSMA-I&S/I&T family” (European Journal of Nuclear Medicine and Molecular Imaging, 2025)
Where two headings read alike, the source gives them in different places. Values belong to the compound of their own block, whether it stands above or below them. Square brackets hold non-standard residues; d marks the D form. Peptide text beside a SMILES is read from it. * marks the point of attachment. X1 = O=C(O)CC[C@H](NC(=O)N[C@@H](CCCCNC(=O)CCCCCCC(=O)*)C(=O)O)C(=O)O; d2Nal = N[C@H](Cc1ccc2ccccc2c1)C(=O)O; Mercaptoacetyl = O=C(CS)*

Tests used:
PSMA = PSMA (Homo sapiens, UniProt Q04609); experiment: Competitive binding (IC50) on LNCaP cells with ([^125I]I-BA)KuE as radioligand; conditions: for IC50: LNCaP cells, ([^125I]I-BA)KuE radioligand, free mas3-chelator
Description: Competitive binding experiments (IC50) were carried out in accordance with an established protocol using PSMA-expressing LNCaP cells and ([^125I]I-BA)KuE as standard radioligand. […] Please see the Supplementary Material for experimental details. For IC50 determination, approximately 150.000 cells/well were seeded on 24-well plates one day prior to the experiment. For internalization studies, 125.000 cells/well in PDL-coated 24-well plates were used. Cell counting was carried out using a Corning cell counter (Cytosmart, Eindhoven, The Netherlands).

[1] = cited from earlier work
[2] = system: PSMA expressing LNCaP cells; experiment: Dual tracer internalization assay; assay type: cell-based, human; conditions: 60 min, 37 °C, 0.5 nM tracer, normalized to ([^125I]IBA)KuE
Description: Competitive binding experiments (IC50) were carried out in accordance with an established protocol using PSMA-expressing LNCaP cells and ([^125I]I-BA)KuE as standard radioligand. […] Please see the Supplementary Material for experimental details. […] The supernatant was removed, cells were washed with assay medium, and an acid wash (50 mM NaOAc in saline, pH 4.5) was performed to remove membrane-associated activity. Cells were then lysed using 1N NaOH, and internalized activity was quantified using a γ-counter. […] Tocris Bioscience, Bristol, UK) and normalized to the specific internalization observed for the radioiodinated reference compound in the same experiment. Data represent means ± SD (n=3) from three separate determinations.

human serum = experiment: Plasma protein binding (B50), ultrafiltration, human serum; assay type: in vitro ADME
Description: (§1) A detailed experimental procedure is provided in the Supplementary Material. […] Briefly, protein solutions (maximum concentration: […] Samples were briefly vortexed and incubated for 30 min at 37 °C. […] The filter units were then removed from the centrifugal tubes and washed twice with 300 µL PBS to recover the protein fraction. The activity in the filtrate, filter and protein fraction were then quantified using a γ-counter. […] The percentages of radioligand bound to the respective proteins are represented as means ± standard deviation (SD) of three independent experiments.

mouse serum = experiment: Plasma protein binding (B50), ultrafiltration, mouse serum; assay type: in vitro ADME
Description: as §1

[3] = target: human serum albumin (HSA) (Homo sapiens, UniProt P02768); experiment: Plasma protein binding (B50), ultrafiltration, HSA; assay type: in vitro ADME
Description: as §1

[4] = Lipophilicity, modified shake-flask method; assay type: physicochemical
Description: The lipophilicity of [^99mTc]Tc-PSMA-HSG was determined via a modified shake-flask method as described.

[5] = system: LNCaP xenograft bearing NSG mice; experiment: Biodistribution in LNCaP xenograft bearing NSG mice; conditions: 6 h p.i., 0.1 nmol
Description: The biodistribution of [^99mTc]Tc-PSMA-HSG and of the reference compound [^99mTc]Tc-PSMA-I&S was investigated in LNCaP xenograft bearing NSG mice (see supplemental information).
Mice were injected intravenously with the respective ^99mTc-labeled tracer (24–34 MBq (fixed peptide dose of 1 nmol/mouse) or 3.7–7.6 MBq (fixed peptide doses of 0.1 nmol/mouse), respectively) and were sacrificed at 2 h (1 nmol-cohort) or 6 h p.i. (0.1 nmol-cohort), respectively. The organs of interest were dissected, and the activity concentration in weighed tissue samples was quantified using an AMG Automatic Gamma Counter (Hidex, Turku, Finland). Biodistribution data are given in %iD/g and represent means ± SD (groups of n = 5 animals). Statistical analysis (Multiple unpaired t-test) of biodistribution data and tumor/organ ratios was performed using GraphPad Prism (Boston, USA).
To induce LNCaP tumor growth, a suspension of LNCaP cells (approx. 5 x 10^6 cells/mouse) in 200 μl of a 1:1 mixture of serum-free DMEM and Matrigel (BD Biosciences) was injected subcutaneously into the right shoulder of male NOD scid gamma (NSG) mice (6-8 weeks, in-house breeding, Dpt. of Oncology, University of Lausanne). After approximately 9 weeks, tumor size reached 4-8 mm in diameter and the mice were used for the in vivo studies.

human serum albumin (HSA), sequence (P02768 25-609): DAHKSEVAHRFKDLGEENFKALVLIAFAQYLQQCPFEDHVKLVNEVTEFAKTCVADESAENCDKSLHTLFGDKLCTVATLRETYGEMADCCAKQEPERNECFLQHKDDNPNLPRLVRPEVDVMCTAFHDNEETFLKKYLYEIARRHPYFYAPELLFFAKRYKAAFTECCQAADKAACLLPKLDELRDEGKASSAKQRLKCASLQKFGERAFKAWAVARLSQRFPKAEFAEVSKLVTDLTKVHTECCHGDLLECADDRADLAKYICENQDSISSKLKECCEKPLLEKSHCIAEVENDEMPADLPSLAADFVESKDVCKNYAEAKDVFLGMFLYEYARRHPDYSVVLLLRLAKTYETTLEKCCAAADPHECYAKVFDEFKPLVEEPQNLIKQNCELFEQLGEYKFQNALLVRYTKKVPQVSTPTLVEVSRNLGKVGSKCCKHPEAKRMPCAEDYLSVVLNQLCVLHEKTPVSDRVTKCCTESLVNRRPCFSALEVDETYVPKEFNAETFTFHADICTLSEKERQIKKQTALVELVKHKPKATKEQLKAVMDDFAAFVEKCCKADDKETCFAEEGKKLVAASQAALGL
PSMA, sequence (Q04609 whole entry): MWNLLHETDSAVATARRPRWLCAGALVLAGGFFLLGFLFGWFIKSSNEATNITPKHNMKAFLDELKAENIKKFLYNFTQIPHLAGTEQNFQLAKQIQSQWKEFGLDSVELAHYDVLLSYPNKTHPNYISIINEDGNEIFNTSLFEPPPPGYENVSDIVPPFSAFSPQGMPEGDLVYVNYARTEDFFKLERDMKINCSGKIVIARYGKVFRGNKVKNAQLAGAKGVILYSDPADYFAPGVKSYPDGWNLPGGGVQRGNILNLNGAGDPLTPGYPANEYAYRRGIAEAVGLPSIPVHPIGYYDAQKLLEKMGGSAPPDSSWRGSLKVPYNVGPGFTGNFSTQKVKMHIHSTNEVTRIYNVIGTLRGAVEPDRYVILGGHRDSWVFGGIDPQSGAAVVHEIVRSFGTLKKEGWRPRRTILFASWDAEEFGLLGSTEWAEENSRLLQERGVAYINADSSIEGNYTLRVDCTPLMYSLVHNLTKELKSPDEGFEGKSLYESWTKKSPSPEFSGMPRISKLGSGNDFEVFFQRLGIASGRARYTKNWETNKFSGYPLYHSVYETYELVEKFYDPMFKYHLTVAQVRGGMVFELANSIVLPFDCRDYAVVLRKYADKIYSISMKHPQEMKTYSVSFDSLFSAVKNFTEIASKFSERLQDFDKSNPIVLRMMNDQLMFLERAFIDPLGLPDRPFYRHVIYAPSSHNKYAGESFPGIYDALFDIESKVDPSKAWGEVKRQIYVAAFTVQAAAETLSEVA

- decrease in PSMA affinity compared to PSMA-HSG (PSMA): fifteen-fold reduction
Compound: CC(=O)SCC(=O)N[C@H](CO)C(=O)N[C@H](CO)C(=O)N[C@H](CO)C(=O)N[C@H](CCCCNC(=O)CCCCCN1/C(=C/C=C/C=C/C2=[N+](C)c3ccc(S(=O)(=O)[O-])cc3C2(C)C)C(C)(C)c2cc(S(=O)(=O)O)ccc21)C(=O)N[C@H](Cc1ccc(O)cc1)C(=O)N[C@H](Cc1ccc2ccccc2c1)C(=O)N[C@H](CCCCNC(=O)CCCCCCC(=O)NCCCC[C@H](NC(=O)N[C@@H](CCCC(=O)O)C(=O)O)C(=O)O)C(=O)O [Aad-PSMA-HSG]

- decrease in PSMA affinity compared to PSMA-HSG (PSMA): twofold decreased
- IC50 (PSMA): 73.1 ± 11.1 nM
Compound: CCN1/C(=C/C=C/C=C/C=C/C2=[N+](CCCCCC(=O)NCCCC[C@@H](NC(=O)[C@@H](CO)NC(=O)[C@@H](CO)NC(=O)[C@@H](CO)NC(=O)CSC(C)=O)C(=O)N[C@H](Cc3ccc(O)cc3)C(=O)N[C@H](Cc3ccc4ccccc4c3)C(=O)N[C@H](CCCCNC(=O)CCCCCCC(=O)NCCCC[C@H](NC(=O)N[C@@H](CCC(=O)O)C(=O)O)C(=O)O)C(=O)O)c3ccc(S(=O)(=O)[O-])cc3C2(C)C)C(C)(C)c2cc(S(=O)(=O)O)ccc21 [PSMA-HSG-Cy7-II]

- decrease in PSMA affinity compared to PSMA-HSG (PSMA): twofold decreased
- IC50 (PSMA): 70.7 ± 10.8 nM
Compound: CC(=O)SCC(=O)N[C@H](CO)C(=O)N[C@H](CO)C(=O)N[C@H](CO)C(=O)N[C@H](CCCCNC(=O)CCCCC[N+]1=C(/C=C/C2=CC(=C/C=C3/N(C)c4ccc(S(=O)(=O)O)cc4C3(C)C)/CCC2)C(C)(C)c2cc(S(=O)(=O)[O-])ccc21)C(=O)N[C@H](Cc1ccc(O)cc1)C(=O)N[C@H](Cc1ccc2ccccc2c1)C(=O)N[C@H](CCCCNC(=O)CCCCCCC(=O)NCCCC[C@H](NC(=O)N[C@@H](CCC(=O)O)C(=O)O)C(=O)O)C(=O)O [PSMA-HSG-Cy7-I]

Compound: O=C(O)CC[C@H](NC(=O)N[C@@H](CCCCNC(=O)c1ccc([18F])nc1)C(=O)O)C(=O)O [[^18F]DCFPyL]
- effective dose ([1]; patients): 0.0165 mSv/MBq

Compound: O=C([O-])CN(CCN(CC(=O)[O-])Cc1cc(CCC(=O)NCCCCCC(=O)NCCCC[C@H](NC(=O)N[C@@H](CCC(=O)O)C(=O)O)C(=O)O)ccc1[O-])Cc1cc(CCC(=O)O)ccc1[O-].[68Ga+3].[OH3+] [[^68Ga]Ga-PSMA-11]
- effective dose ([1]; human, in vivo): 0.023 ± 0.004 mSv/MBq

Compound: C[N+]1=C(/C=C/C2=CC(=C/C=C3/N(CCCCCC(=O)NCCCC[C@@H](NC(=O)[C@@H](CO)NC(=O)[C@@H](CO)NC(=O)[C@@H](CO)NC(=O)CS)C(=O)N[C@H](Cc4ccc(O)cc4)C(=O)N[C@H](Cc4ccc5ccccc5c4)C(=O)N[C@H](CCCCNC(=O)CCCCCCC(=O)NCCCC[C@H](NC(=O)N[C@@H](CCC(=O)O)C(=O)O)C(=O)O)C(=O)O)c4ccc(S(=O)(=O)[O-])cc4C3(C)C)/CCC2)C(C)(C)c2cc(S(=O)(=O)O)ccc21 [[^99mTc]Tc-PSMA-HSG-Cy7-I, metal not drawn]
- internalization [% of reference] [2]: 17 ± 2 % of reference
- B50 HS (human serum): 246 ± 27
- B50 MS (mouse serum): 93 ± 16
- B50 HSA [3]: 165 ± 21
- logD [4]: -2.63

Compound: CC[N+]1=C(/C=C/C=C/C=C/C=C2/N(CCCCCC(=O)NCCCC[C@@H](NC(=O)[C@@H](CO)NC(=O)[C@@H](CO)NC(=O)[C@@H](CO)NC(=O)CS)C(=O)N[C@H](Cc3ccc(O)cc3)C(=O)N[C@H](Cc3ccc4ccccc4c3)C(=O)N[C@H](CCCCNC(=O)CCCCCCC(=O)NCCCC[C@H](NC(=O)N[C@@H](CCC(=O)O)C(=O)O)C(=O)O)C(=O)O)c3ccc(S(=O)(=O)[O-])cc3C2(C)C)C(C)(C)c2cc(S(=O)(=O)O)ccc21 [[^99mTc]Tc-PSMA-HSG-Cy7-II, metal not drawn]
- internalization [% of reference] [2]: 28 ± 7 % of reference
- B50 HS (human serum): 121 ± 16
- B50 MS (mouse serum): 53 ± 7
- B50 HSA [3]: 149 ± 14
- logD [4]: -2.71

Compound: O=C(O)CC[C@H](NC(=O)N[C@@H](CCCCNC(=O)CCCCCCC(=O)NCCCC[C@@H](NC(=O)[C@@H](Cc1ccc2ccccc2c1)NC(=O)[C@@H](Cc1ccc(O)cc1)NC(=O)[C@@H](CO)NC(=O)[C@@H](CO)NC(=O)[C@@H](CO)NC(=O)CS)C(=O)O)C(=O)O)C(=O)O [[^99mTc]Tc-PSMA-I&S, [^99mTc]Tc-mas3-y-nal-k-Sub-KuE, metal not drawn, reference compound] (Mercaptoacetyl-[dS][dS][dS][dY][d2Nal][dK](X1)-OH)
- B50 HS (human serum; human serum, molar excess of protein over radioligand for half-maximal binding, n = 3): 321 ± 18
- B50 MS (mouse serum; mouse serum, molar excess of protein over radioligand for half-maximal binding, n = 3): 652 ± 77
- absorbed dose coefficient of the urinary bladder wall ([1]; patients): 0.000355 mGy/MBq
- effective dose ([1]; patients): 0.0052 mSv/MBq
- kidney absorbed dose coefficient ([1]; patients): 0.0733 mGy/MBq
- salivary gland absorbed dose coefficient ([1]; patients): 0.0221 mGy/MBq
- B50 HSA ([3]; HSA in PBS, molar excess of protein over radioligand for half-maximal binding, n = 3): 324 ± 6
- lipophilicity [logD] [4]: −3.01
- biodistribution, LNCaP tumor [5]: 12.9 ± 1.4 %iD/g
- biodistribution, blood [5]: 0.15 ± 0.03 %iD/g
- biodistribution, heart [5]: 0.24 ± 0.05 %iD/g
- biodistribution, intestines [5]: 1.8 ± 0.8 %iD/g
- biodistribution, kidneys [5]: 147.0 ± 10 %iD/g
- biodistribution, liver [5]: 0.8 ± 0.4 %iD/g
- biodistribution, lung [5]: 2.2 ± 0.2 %iD/g
- biodistribution, muscle [5]: 0.2 ± 0.04 %iD/g
- biodistribution, pancreas [5]: 0.7 ± 0.1 %iD/g
- biodistribution, salivary glands [5]: 3.2 ± 0.8 %iD/g
- biodistribution, spleen [5]: 14.2 ± 2.0 %iD/g
- biodistribution, stomach [5]: 0.3 ± 0.1 %iD/g
